How the values were obtained:
Assay type in all cases: biochemical
PI3Kδ = PI3Kδ (Homo sapiens, UniProt O00329); test: Fluorescent determination of PI3Kinase enzyme activity (HTRF), PI3Kδ; conditions: for inhibition at 0.1 µM: 100 nM (underlined values: 300 nM)
Description: (§1) Fluorescent Determination of PI3Kinase Enzyme Activity
(§2) Phosphoinositide 3 kinases (PI3K) belong to a class of Lipid kinases that play a critical role in the regulation of several key cellular processes. The PI3K are capable of phosphorylating the 3-hydroxy position of phosphoinositols thereby generating second messengers involved in downstream signalling events. The homogenous time resolved fluorescence (HTRF) assay allows detection of 3,4,5-triphosphate (PIP3) formed as a result of phosphorylation of phosphotidylinositol 4,5-biphosphate (PIP2) by PI3K isoforms such as α, […], γ or δ.
(§3) PI3K isoform activity for α, β, γ or δ is to be determined using a PI3K human HTRF™ Assay Kit (Millipore, Billerica, Mass.) with modifications. All incubations were carried out at room temperature. Briefly, 0.5 μl of 40× inhibitor (in 100% DMSO) or 100% DMSO were added to each well of a 384-well black plate (Greiner Bio-One, Monroe, N.C.) containing 14.5 μl 1× reaction buffer/PIP2 (10 mM MgCl2, 5 mM DTT, 1.38 μM PIP2) mix with or without enzyme and incubated for 10 min. After the initial incubation, 5 μl/well of 400 μM ATP was added and incubated for an additional 30 minutes. Reaction was terminated by adding 5 μl/well stop solution (Millipore, Billerica, Mass.). Five microliters of detection mix (Millipore, Billerica, Mass.) were then added to each well and was incubated for 6-18 h in the dark. HRTF ratio was measured on a microplate reader (BMG Labtech, Germany) at an excitation wavelength of 337 nm and emission wavelengths of 665 and 620 nm with an integration time of 400 μsec. Data was analyzed using Graphpad Prism (Graphpad software; San Diego Calif.) for IC50 determination).

PI3Kγ = PI3Kγ (Homo sapiens, UniProt P48736); test: Fluorescent determination of PI3Kinase enzyme activity (HTRF), PI3Kγ; conditions: for inhibition at 0.1 µM: 100 nM (underlined values: 300 nM)
Description: as §1, §2, §3

PI3Kα = PI3Kα (Homo sapiens, UniProt P42336); test: Fluorescent determination of PI3Kinase enzyme activity (HTRF), PI3Kα
Description: as §1, §2, §3

PI3Kβ = PI3Kβ (Homo sapiens, UniProt P42338); test: Fluorescent determination of PI3Kinase enzyme activity (HTRF), PI3Kβ
Description: as §1, §2, §3

PI3Kδ, sequence (O00329 whole entry): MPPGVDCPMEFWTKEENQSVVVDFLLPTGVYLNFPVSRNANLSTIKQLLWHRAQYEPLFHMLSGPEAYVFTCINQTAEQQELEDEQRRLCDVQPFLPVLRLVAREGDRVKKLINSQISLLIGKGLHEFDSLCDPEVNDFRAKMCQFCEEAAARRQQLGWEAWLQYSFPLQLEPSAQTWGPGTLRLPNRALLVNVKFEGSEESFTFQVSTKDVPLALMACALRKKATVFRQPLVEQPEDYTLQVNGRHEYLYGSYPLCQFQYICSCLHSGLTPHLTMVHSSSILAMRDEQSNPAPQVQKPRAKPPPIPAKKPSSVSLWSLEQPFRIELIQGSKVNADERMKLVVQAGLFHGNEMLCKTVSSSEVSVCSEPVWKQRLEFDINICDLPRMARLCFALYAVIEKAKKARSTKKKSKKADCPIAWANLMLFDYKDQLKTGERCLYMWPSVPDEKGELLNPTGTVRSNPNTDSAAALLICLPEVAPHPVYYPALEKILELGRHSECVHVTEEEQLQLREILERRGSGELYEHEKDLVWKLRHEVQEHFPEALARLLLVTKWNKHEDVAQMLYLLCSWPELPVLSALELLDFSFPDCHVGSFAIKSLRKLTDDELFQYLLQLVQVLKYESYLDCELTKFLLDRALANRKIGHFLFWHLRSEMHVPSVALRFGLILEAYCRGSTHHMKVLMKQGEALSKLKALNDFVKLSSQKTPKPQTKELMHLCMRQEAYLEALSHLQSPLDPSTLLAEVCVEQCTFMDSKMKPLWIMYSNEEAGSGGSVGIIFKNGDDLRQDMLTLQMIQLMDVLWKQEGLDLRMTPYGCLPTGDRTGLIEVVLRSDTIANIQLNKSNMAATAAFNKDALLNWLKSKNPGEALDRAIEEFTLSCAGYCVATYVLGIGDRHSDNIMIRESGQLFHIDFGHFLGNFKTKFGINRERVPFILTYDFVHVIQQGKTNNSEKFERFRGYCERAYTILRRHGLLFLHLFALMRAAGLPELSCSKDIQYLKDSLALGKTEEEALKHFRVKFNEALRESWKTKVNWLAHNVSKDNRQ
PI3Kδ, sequence (P27986 whole entry partner): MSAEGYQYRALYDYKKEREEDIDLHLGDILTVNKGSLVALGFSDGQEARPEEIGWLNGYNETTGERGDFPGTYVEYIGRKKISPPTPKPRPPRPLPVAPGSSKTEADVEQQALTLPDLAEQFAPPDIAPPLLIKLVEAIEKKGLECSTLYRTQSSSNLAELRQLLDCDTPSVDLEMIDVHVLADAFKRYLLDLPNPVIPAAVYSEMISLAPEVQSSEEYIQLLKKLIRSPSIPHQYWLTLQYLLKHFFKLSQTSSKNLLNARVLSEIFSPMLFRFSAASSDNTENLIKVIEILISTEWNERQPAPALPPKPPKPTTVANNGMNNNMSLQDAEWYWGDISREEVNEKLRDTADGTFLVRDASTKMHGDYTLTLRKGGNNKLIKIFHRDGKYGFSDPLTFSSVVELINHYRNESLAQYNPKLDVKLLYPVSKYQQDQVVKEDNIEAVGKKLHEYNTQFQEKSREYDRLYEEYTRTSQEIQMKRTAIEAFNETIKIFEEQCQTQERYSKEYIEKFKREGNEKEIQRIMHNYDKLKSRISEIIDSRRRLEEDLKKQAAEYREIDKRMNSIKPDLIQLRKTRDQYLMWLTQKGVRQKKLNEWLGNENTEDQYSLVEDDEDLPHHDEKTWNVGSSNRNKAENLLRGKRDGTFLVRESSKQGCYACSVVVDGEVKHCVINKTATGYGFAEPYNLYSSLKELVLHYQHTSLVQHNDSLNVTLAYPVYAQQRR
PI3Kβ, sequence (P42338 whole entry): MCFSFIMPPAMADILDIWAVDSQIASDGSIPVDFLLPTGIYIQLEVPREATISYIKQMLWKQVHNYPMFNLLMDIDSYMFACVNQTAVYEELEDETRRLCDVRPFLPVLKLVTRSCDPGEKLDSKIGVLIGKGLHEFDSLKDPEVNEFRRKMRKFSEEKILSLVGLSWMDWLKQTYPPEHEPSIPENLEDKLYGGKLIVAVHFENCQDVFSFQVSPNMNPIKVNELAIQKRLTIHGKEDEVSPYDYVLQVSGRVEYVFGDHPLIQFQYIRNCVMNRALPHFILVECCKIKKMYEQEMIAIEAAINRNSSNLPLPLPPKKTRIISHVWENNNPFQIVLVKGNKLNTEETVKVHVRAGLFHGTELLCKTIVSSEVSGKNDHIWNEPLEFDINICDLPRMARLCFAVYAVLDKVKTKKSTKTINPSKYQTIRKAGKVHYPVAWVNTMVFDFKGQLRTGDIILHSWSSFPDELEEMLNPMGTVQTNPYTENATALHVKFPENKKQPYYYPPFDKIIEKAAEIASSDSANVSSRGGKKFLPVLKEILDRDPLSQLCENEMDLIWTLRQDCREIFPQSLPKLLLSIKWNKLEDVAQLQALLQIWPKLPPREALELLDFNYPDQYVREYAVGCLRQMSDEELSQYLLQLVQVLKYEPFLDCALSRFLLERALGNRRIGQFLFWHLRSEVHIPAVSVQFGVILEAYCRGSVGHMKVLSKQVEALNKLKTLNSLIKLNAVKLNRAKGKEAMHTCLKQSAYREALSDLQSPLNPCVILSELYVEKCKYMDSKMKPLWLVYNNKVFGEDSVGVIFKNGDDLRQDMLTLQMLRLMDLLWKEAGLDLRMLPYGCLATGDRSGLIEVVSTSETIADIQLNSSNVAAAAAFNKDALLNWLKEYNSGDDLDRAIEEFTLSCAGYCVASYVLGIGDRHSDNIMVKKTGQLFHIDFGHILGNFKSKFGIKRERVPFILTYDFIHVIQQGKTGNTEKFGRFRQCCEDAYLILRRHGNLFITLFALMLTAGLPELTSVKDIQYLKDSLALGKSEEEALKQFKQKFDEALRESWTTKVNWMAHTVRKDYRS
PI3Kβ, sequence (P27986 whole entry partner): as the sequence (P27986 whole entry partner) above
PI3Kα, sequence (P42336 whole entry): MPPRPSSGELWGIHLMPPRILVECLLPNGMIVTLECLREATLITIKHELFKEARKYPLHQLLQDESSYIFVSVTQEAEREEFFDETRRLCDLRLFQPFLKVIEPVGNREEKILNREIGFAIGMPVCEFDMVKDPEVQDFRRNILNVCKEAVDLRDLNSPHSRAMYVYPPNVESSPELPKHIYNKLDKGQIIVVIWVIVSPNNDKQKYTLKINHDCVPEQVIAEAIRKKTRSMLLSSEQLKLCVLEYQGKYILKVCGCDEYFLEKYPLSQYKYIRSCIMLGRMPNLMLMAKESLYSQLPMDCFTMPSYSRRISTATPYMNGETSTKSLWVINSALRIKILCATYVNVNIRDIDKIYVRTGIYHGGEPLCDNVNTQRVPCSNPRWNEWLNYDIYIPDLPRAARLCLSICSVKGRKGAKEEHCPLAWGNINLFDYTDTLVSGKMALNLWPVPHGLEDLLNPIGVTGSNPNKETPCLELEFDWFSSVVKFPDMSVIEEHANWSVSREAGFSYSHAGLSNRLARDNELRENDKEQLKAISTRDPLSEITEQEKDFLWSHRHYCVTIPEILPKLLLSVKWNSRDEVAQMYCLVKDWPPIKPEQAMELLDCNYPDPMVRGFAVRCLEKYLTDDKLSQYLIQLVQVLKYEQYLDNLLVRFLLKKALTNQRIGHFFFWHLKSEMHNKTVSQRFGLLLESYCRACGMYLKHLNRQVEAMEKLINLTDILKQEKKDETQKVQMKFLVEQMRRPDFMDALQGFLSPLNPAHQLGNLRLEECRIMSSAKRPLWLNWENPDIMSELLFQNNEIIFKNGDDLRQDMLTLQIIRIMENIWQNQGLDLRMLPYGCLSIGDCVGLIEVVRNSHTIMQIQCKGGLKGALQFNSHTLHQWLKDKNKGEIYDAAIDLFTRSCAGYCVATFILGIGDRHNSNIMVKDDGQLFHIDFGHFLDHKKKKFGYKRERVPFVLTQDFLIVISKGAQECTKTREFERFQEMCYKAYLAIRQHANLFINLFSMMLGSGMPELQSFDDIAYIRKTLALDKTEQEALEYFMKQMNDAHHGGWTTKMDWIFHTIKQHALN
PI3Kα, sequence (P27986 whole entry partner): as the sequence (P27986 whole entry partner) above
PI3Kγ, sequence (P48736 whole entry): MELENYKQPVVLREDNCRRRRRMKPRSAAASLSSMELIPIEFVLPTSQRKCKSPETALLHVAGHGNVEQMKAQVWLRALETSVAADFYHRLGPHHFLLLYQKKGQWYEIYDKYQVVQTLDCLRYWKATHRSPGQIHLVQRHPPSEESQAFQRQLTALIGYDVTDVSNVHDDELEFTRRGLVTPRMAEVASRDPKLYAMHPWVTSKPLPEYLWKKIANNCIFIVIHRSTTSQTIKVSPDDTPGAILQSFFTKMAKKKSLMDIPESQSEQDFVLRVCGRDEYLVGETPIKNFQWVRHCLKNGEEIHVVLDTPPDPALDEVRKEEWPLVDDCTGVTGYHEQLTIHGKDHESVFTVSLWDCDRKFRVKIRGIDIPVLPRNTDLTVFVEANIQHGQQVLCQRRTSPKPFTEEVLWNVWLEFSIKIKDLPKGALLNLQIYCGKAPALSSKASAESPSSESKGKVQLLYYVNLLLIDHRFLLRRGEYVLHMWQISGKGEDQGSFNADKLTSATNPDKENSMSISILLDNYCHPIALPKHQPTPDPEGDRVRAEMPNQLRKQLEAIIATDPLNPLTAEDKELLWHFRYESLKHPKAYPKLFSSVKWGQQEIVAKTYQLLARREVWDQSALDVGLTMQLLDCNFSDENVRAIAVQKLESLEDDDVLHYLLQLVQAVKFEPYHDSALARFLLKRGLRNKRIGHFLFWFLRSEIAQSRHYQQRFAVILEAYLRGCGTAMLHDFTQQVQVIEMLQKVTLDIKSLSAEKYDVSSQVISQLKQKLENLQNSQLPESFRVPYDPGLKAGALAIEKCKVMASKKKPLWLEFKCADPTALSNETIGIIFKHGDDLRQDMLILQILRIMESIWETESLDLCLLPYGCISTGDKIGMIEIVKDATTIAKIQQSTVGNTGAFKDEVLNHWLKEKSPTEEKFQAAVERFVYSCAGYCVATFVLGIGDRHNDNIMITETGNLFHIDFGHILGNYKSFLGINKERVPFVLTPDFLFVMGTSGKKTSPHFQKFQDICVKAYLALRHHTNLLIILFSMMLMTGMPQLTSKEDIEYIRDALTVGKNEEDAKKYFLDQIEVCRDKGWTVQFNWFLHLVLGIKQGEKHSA

| SMILES | IC50 (PI3Kδ) [nM] | inhibition at 0.1 µM (PI3Kδ) [%] | IC50 (PI3Kγ) [nM] | inhibition at 0.1 µM (PI3Kγ) [%] | inhibition at 1 µM (PI3Kα) [%] | inhibition at 1 µM (PI3Kβ) [%] |
| --- | --- | --- | --- | --- | --- | --- |
| CC(c1cc2ccccc2c(=O)n1-c1ccccc1)n1nc(-c2ccc(O)c(F)c2)c2c(N)ncnc21 (centres unmarked) [Example 7, 3-(1-(4-amino-3-(3-fluoro-4-hydroxyphenyl)-1H-pyrazolo[3,4-d]pyrimidin-1-yl)ethyl)-2-phenylisoquinolin-1(2H)-one] | – | 40 to 60 | – | 20 to 40 | 10 to 20 | 20 to 40 |
| CC(C)Oc1ccc(-c2nn(C(C)c3nc4ccccc4c(=O)n3-c3ccccc3)c3ncnc(N)c23)cc1F (centres unmarked) [Example 6, 2-(1-(4-amino-3-(3-fluoro-4-isopropoxyphenyl)-1H-pyrazolo[3,4-d]pyrimidin-1-yl)ethyl)-3-phenylquinazolin-4(3H)-one] | – | 80 to 100 | – | 40 to 60 | 0 to 10 | 0 to 10 |
| CC(C)Oc1ccc(-c2nn(C(C)c3nc4cccc(F)c4c(=O)n3-c3ccccc3)c3ncnc(N)c23)cc1F (centres unmarked) [Example 3, 2-(1-(4-amino-3-(3-fluoro-4-isopropoxyphenyl)-1H-pyrazolo[3,4-d]pyrimidin-1-yl)ethyl)-5-fluoro-3-phenylquinazolin-4(3H)-one] | – | 0 to 20 | – | 0 to 20 | 0 to 10 | 10 to 20 |
| CC(C)Oc1ccc(-c2nn(C(C)c3cc4cccc(F)c4c(=O)n3-c3ccccc3)c3ncnc(N)c23)cc1F (centres unmarked) [Example 2, 3-(1-(4-amino-3-(3-fluoro-4-isopropoxyphenyl)-1H-pyrazolo[3,4-d]pyrimidin-1-yl)ethyl)-8-fluoro-2-phenylisoquinolin-1(2H)-one] | – | 0 to 20 | – | 0 to 20 | 0 to 10 | 10 to 20 |
| CC(C)Oc1ccc(-c2nn(C(C)c3cc4ccccc4c(=O)n3-c3ccccc3)c3ncnc(N)c23)cc1F (centres unmarked) [Example 5, 3-(1-(4-amino-3-(3-fluoro-4-isopropoxyphenyl)-1H-pyrazolo[3,4-d]pyrimidin-1-yl)ethyl)-2-phenylisoquinolin-1(2H)-one] | – | 80 to 100 | – | 60 to 80 | 0 to 10 | 10 to 20 |
| CC(C)Oc1ccc(-c2nn([C@@H](C)c3cc4ccccc4c(=O)n3-c3ccccc3)c3ncnc(N)c23)cc1F [Example 5a, (+)-3-(1-(4-amino-3-(3-fluoro-4-isopropoxyphenyl)-1H-pyrazolo[3,4-d]pyrimidin-1-yl)ethyl)-2-phenylisoquinolin-1(2H)-one] | 3.05 | 80 to 100 | 22.2 | 60 to 80 | 0 to 10 | 20 to 40 |
| CC(C)Oc1ccc(-c2nn(C(C)c3nc4ccc(F)cc4c(=O)n3-c3ccccc3)c3ncnc(N)c23)cc1F (centres unmarked) [Example 4, 2-(1-(4-amino-3-(3-fluoro-4-isopropoxyphenyl)-1H-pyrazolo[3,4-d]pyrimidin-1-yl)ethyl)-6-fluoro-3-phenylquinazolin-4(3H)-one] | – | 0 to 20 | – | 40 to 60 | 0 to 10 | 20 to 40 |
| CC(C)Oc1ccc(-c2nn([C@@H](C)c3nc4ccccc4c(=O)n3-c3ccccc3)c3ncnc(N)c23)cc1F [Example 6a, (+)-2-(1-(4-amino-3-(3-fluoro-4-isopropoxyphenyl)-1H-pyrazolo[3,4-d]pyrimidin-1-yl)ethyl)-3-phenylquinazolin-4(3H)-one] | 2.74 | 80 to 100 | 15 | 40 to 60 | 0 to 10 | 20 to 40 |

More lines, now with the values ahead:

| IC50 (PI3Kδ) [nM] | inhibition at 0.1 µM (PI3Kδ) [%] | IC50 (PI3Kγ) [nM] | inhibition at 0.1 µM (PI3Kγ) [%] | inhibition at 1 µM (PI3Kα) [%] | inhibition at 1 µM (PI3Kβ) [%] | SMILES |
| --- | --- | --- | --- | --- | --- | --- |
| 9.99 | 80 to 100 | 52 | 40 to 60 | 0 to 10 | 10 to 20 | C[C@@H](c1cc2cccc(F)c2c(=O)n1-c1ccccc1)n1nc(-c2ccc(O)c(F)c2)c2c(N)ncnc21 [Example 15a, (+)-3-(1-(4-amino-3-(3-fluoro-4-hydroxyphenyl)-1H-pyrazolo[3,4-d]pyrimidin-1-yl)ethyl)-8-fluoro-2-phenylisoquinolin-1(2H)-one] |
| 4.2 | 80 to 100 | 19.5 | 80 to 100 | 0 to 10 | 10 to 20 | C[C@@H](c1cc2cccc(Cl)c2c(=O)n1-c1ccccc1)n1nc(-c2ccc(O)c(F)c2)c2c(N)ncnc21 [Example 14a, (+)-3-(1-(4-amino-3-(3-fluoro-4-hydroxyphenyl)-1H-pyrazolo[3,4-d]pyrimidin-1-yl)ethyl)-8-chloro-2-phenylisoquinolin-1(2H)-one] |
| 33.3 | 80 to 100 | 122 | 20 to 40 | 0 to 10 | 10 to 20 | C[C@@H](c1nc2cccc(F)c2c(=O)n1-c1ccccc1)n1nc(-c2ccc(O)c(F)c2)c2c(N)ncnc21 [Example 16a, (+)-2-(1-(4-amino-3-(3-fluoro-4-hydroxyphenyl)-1H-pyrazolo[3,4-d]pyrimidin-1-yl)ethyl)-5-fluoro-3-phenylquinazolin-4(3H)-one] |
| – | 20 to 40 | – | 0 to 20 | 0 to 10 | 0 to 10 | C[C@@H](c1cc2cccc(Cl)c2c(=O)n1-c1ccccc1)n1nc(-c2ccc(OC(F)F)c(F)c2)c2c(N)ncnc21 [Example 17a, (+)-3-(1-(4-amino-3-(4-(difluoromethoxy)-3-fluorophenyl)-1H-pyrazolo[3,4-d]pyrimidin-1-yl)ethyl)-8-chloro-2-phenylisoquinolin-1(2H)-one] |
| – | 0 to 20 | – | 20 to 40 | 0 to 10 | 20 to 40 | COc1ccc(-c2nn(C(C)c3nc4ccccc4c(=O)n3-c3ccccc3)c3ncnc(N)c23)cc1NS(C)(=O)=O (centres unmarked) [Example 12, N-(5-(4-amino-1-(1-(4-oxo-3-phenyl-3,4-dihydroquinazolin-2-yl)ethyl)-1H-pyrazolo[3,4-d]pyrimidin-3-yl)-2-methoxyphenyl)methanesulfonamide] |
| 16.2 | 80 to 100 | 203 | 40 to 60 | 0 to 10 | 20 to 40 | COc1ccc(-c2nn([C@@H](C)c3cc4ccccc4c(=O)n3-c3ccccc3)c3ncnc(N)c23)cc1NS(C)(=O)=O [Example 9a, (+)—N-(5-(4-amino-1-(1-(1-oxo-2-phenyl-1,2-dihydroisoquinolin-3-yl)ethyl)-1H-pyrazolo[3,4-d]pyrimidin-3-yl)-2-methoxyphenyl)methanesulfonamide] |
| – | 80 to 100 | – | 80 to 100 | 20 to 40 | 40 to 60 | CC(c1cc2cccc(Cl)c2c(=O)n1-c1ccccc1)n1nc(-c2ccc(OC(F)F)c(F)c2)c2c(N)ncnc21 (centres unmarked) [Example 17, 3-(1-(4-amino-3-(4-(difluoromethoxy)-3-fluorophenyl)-1H-pyrazolo[3,4-d]pyrimidin-1-yl)ethyl)-8-chloro-2-phenylisoquinolin-1(2H)-one] |
| – | 80 to 100 | – | 60 to 80 | 0 to 10 | 0 to 10 | Cc1n[nH]c2cc(-c3nn([C@@H](C)c4cc5cccc(Cl)c5c(=O)n4-c4ccccc4)c4ncnc(N)c34)ccc12 [Example 21a, (+)-3-(1-(4-amino-3-(3-methyl-1H-indazol-6-yl)-1H-pyrazolo[3,4-d]pyrimidin-1-yl)ethyl)-8-chloro-2-phenylisoquinolin-1(2H)-one] |
| 76.4 | 60 to 80 | 142 | 20 to 40 | 0 to 10 | 10 to 20 | COc1ccc(-c2nn([C@@H](C)c3cc4cccc(Cl)c4c(=O)n3-c3ccccc3)c3ncnc(N)c23)cc1NS(C)(=O)=O [Example 20a, (+)—N-(5-(4-amino-1-(1-(8-chloro-1-oxo-2-phenyl-1,2-dihydroisoquinolin-3-yl)ethyl)-1H-pyrazolo[3,4-d]pyrimidin-3-yl)-2-methoxyphenyl)methanesulfonamide] |
| – | 80 to 100 | – | 60 to 80 | 40 to 60 | 20 to 40 | COc1ccc(-c2nn(C(C)c3cc4cccc(Cl)c4c(=O)n3-c3ccccc3)c3ncnc(N)c23)cc1NS(C)(=O)=O (centres unmarked) [Example 20, N-(5-(4-amino-1-(1-(8-chloro-1-oxo-2-phenyl-1,2-dihydroisoquinolin-3-yl)ethyl)-1H-pyrazolo[3,4-d]pyrimidin-3-yl)-2-methoxyphenyl)methanesulfonamide] |
